Data taken from US20070088043A1, “Novel HDAC inhibitors” (ORCHID RESEARCH LABORATORIES LIMITED., priority 2005, published 2007).

How the values were obtained:
[1] = test system: MDAMB231/U251; experiment: Anti-cancer screen (MTT), MDAMB231/U251; format: cell-based; set-up: MDAMB231/U251 TGI: unit: uM; settings: MDAMB231/U251 cells, 48 hours; for GI50: concentration to decrease % growth by 50%; for IC100: read-out: MDAMB231/U251 TGI; for LC50: concentration to decrease % growth by 150%
Procedure: (§1) Experimental drugs are screened for anti-cancer activity in three cell lines for their GI50, TGI and LC50 values (using five concentrations for each compound). The cell lines are maintained in DMEM containing 10% fetal bovine serum. 96 well micro titer plates are inoculated with cells in 100 μL for 24 h at 37° C., 5% CO2, 95% air and 100% relative humidity. 5000 HCT 116 cells/well, 5000 NCIH 460 cells/well and 5000 U251 cells/well are plated. A separate plate with these cell lines is also inoculated to determine cell viability before the addition of the compounds (T0).
(§2) Following 24-hour incubation, experimental drugs are added to the 96 well plates. Each plate contains one of the above cell lines and the following in triplicate: five different concentrations (0.01, 0.1, 1, 10 and 100 μM) of four different compounds, appropriate dilutions of a cytotoxic standard and control (untreated) wells. Compounds are dissolved in DMSO to make 20 mM stock solutions on the day of drug addition and frozen at −20° C. Serial dilutions of these 20 mM stock solutions are made in complete growth medium such that 100 μL of these drug solutions in medium, of final concentrations equaling 0.01, 0.1, 1, 10 and 100 μM can be added to the cells in triplicate. Standard drugs whose anti-cancer activity has been well documented and which are regularly used are doxorubicin and SAHA.
(§3) For To measurement, 24 hours after seeding the cells, 10 μL of 3-(4,5-Dimethyl-2-thiazolyl)-2,5-diphenyl-2H-tetrazolium (MTT) solution per well is added and incubation carried out for 3 hours at 37° C., 5% CO2, 95% air and 100% relative humidity, protected from light. Cells incubated with compounds for 48 hours are treated similarly except with the addition of 20 μL MTT solution per well and a subsequent incubation under the same conditions. After 3 hours of MTT incubation, well contents are aspirated carefully followed by addition of 150 μL DMSO per well. Plates are agitated to ensure solution of the formazan crystals in DMSO and absorbance read at 570 nm. […]

[2] = test system: NCIH460, HCT116, MDAMB231/U251; experiment: Anti-cancer screen, mean GI50 over the cell lines; format: cell-based; settings: in µM
Procedure: as §1, §2, §3

[3] = test system: HDAC (Mouse Liver Extract); experiment: Histone Deacetylase (HDAC) Inhibition Assay using Boc-Lys (Ac)-AMC Substrate; format: biochemical; settings: mouse liver enzyme, NA = No Activity; for HDAC Inhibition 10 μM / HDAC Inhibition 1 μM: in % (unit assumed)
From the text: HDAC Activitv Screening: Histone Deacetylase (HDAC) Inhibition Assay using Boc-Lys (Ac)-AMC Substrate:
Inhibition of HDAC has been implicated to modulate transcription and to induce apoptosis or differentiation in cancer cells. The fluorometric assay provides a fast and fluorescence based method that eliminates radioactivity, extractions or chromatography, as used in traditional assays. The assay based on two steps. First, the HDAC fluorometric substrate, which comprises an acetylated lysine side chain, is incubated with a sample containing HDAC activity (Mouse Liver Extract). Deacetylation of the substrate sensitizes the substrate, in the second step; treatment with the Trypsin stop solution produces a fluorophore that can be easily analyzed using fluorescence plate reader.
Assay was done in 96 well black microplate and total volume of the assay is 100 ul. Mouse liver enzyme is diluted 1:6 with HDAC buffer. Enzyme cocktail made of 10 ul of diluted enzyme and 30 ul of HDAC buffer. 40 ul of enzyme cocktail dispensed into each well. 10 ul of different concentrations of inhibitor added in to each well, except enzyme control well. Preincubated the plate at 30° C. for 5 minutes. The HDAC reaction is started by adding 50 ul of HDAC substrate (Boc-Lys (Ac)-AMC Substrate) solution. Incubated the plate at 30° C. for 30 minutes. Adding 100 ul of Trypsin stop solution stops the reaction. The plate is incubated again at 30° C. for 20-30 minutes. The release of AMC is monitored by measuring the fluorescence at excitation wavelength of 365 or 360 nm and emission wavelength of 440 or 460 nm. Buffer and substrate alone kept for blank subtraction. (Dennis Wegener et al, Anal. Biochem, 321, 2003, 202-208).

[4] = test system: NCIH 460 cells; experiment: Anti-cancer screen (MTT), NCIH460; format: cell-based; set-up: NCIH460 TGI: unit: uM; settings: for GI50: concentration to decrease % growth by 50%; for IC100: read-out: NCIH460 TGI; for LC50: concentration to decrease % growth by 150%
Procedure: as §1, §2, §3

[5] = test system: HCT 116 cells; experiment: Anti-cancer screen (MTT), HCT116; format: cell-based; set-up: HCT116 TGI: unit: uM; settings: for GI50: concentration to decrease % growth by 50%; for IC100: read-out: HCT116 TGI; for LC50: concentration to decrease % growth by 150%
Procedure: as §1, §2, §3

[6] = concentration to decrease % growth by 100%
[7] = Homo sapiens, NCI-H460, NCIH460 cells, 48 hours, MTT
[8] = Homo sapiens, NCI-H460, NCIH460 cells, 48 hours, MTT, concentration to decrease % growth by 100%
[9] = Homo sapiens, HCT-116, HCT116 cells, 48 hours, MTT
[10] = Homo sapiens, HCT-116, HCT116 cells, 48 hours, MTT, concentration to decrease % growth by 100%

Row | Compound | GI50 [1] [µM] | IC100 [1, 6] [µM] | LC50 [1] [µM] | Mean GI50 [2] | HDAC Inhibition 10 μM [3] | GI50 [4, 7] [µM] | IC100 [4, 8] [µM] | LC50 [4, 7] [µM] | GI50 [5, 9] [µM] | IC100 [5, 10] [µM] | LC50 [5, 9] [µM] | HDAC Inhibition 1 μM [3] | IC50 [3] [µM] | MDAMB231/U251 TGI [1, 6] | CC50 [4] [µM] | GI50 ([4]; NCIH460 cells, 48 hours, MTT) [µM] | NCIH460 TGI ([4]; NCIH460 cells, 48 hours, MTT, concentration to decrease % growth by 100%) | CC50 [5] [µM] | GI50 ([5]; HCT116 cells, 48 hours, MTT) [µM] | HCT116 TGI ([5]; HCT116 cells, 48 hours, MTT, concentration to decrease % growth by 100%)
1 | Cc1ccc2nc(NC(=O)CN3CCN(C(=O)CCCCCS)CC3)sc2c1 [Example 25, N-6-methyl-1,3-benzothiazol-2-yl-2-[4-(6-mercaptohexanoyl)piperazin-1-yl]acetamide] | 0.07 | 0.8 | > 100 | 4.2 | 3.6 | 9 | > 100 | > 100 | 3.5 | > 100 | > 100 |  |  |  |  |  |  |  |  | 
2 | CC(=O)N(O)C(=O)CCCCCCC(=O)N1CCN(CC(=O)Nc2nc3ccccc3s2)CC1 [Example 39, 8-{4-[2-(1,3-Benzothiazol-2-ylamino)-2-oxoethyl]piperazin-1-yl}-N-acetyl-N-hydroxy-8-oxo octanamide] | 22 | 52 | 78 | 24.7 | 96.6 | 44 | 48 | > 100 | 8 | 57 | 98 | 81.4 | 0.55 |  |  |  |  |  |  | 
3 | CC(=O)SCCCCC(=O)N1CCN(CC(=O)Nc2ncc([N+](=O)[O-])s2)CC1 [Example 9] | > 100 | > 100 | > 100 | >100 | 23.65 | > 100 | > 100 | > 100 | > 100 | > 100 | > 100 | 3.39 |  |  |  |  |  |  |  | 
4 | CC(=O)SCCCCCC(=O)N1CCN(C(=O)CNc2nc3ccc(C)cc3s2)CC1 [Example 3, N-{2-[4-(6-thioacetylhexanoyl)piperazin-1-yl]-2-oxoethyl}-6-methyl-1,3-benzo thiazol-2-amine] | 48 | > 100 | > 100 | >100 | 86.74 | > 100 | > 100 | > 100 | 49 | 99 | > 100 | 42.40 |  |  |  |  |  |  |  | 
5 | CC(=O)SCCCCCC(=O)N1CCN(CC(=O)Nc2nc3c(C)cccc3s2)CC1 [Example 10, 2-[4-(6-Thioacetylhexanoyl)piperazin-1-yl]-N-(4-methyl-1,3-benzothiazol-2-yl)acetamide] | 2 | 9 | > 100 | 1.80 | 87.16 | 0.5 | 2 | 95 | 3 | 50 | > 100 | 54.06 | 1.5 |  |  |  |  |  |  | 
6 | CC(=O)SCCCCC(=O)N1CCN(CC(=O)Nc2nc(C(C)(C)C)cs2)CC1 [Example 14, 2-[4-(5-Thioacetylpentanoyl)piperazin-1-yl]-N-(4-tertiarybutyl-1,3-thiazol-2-yl)acetamide] | 0.08 | 27 | > 100 | >100 | 57.33 | > 100 | > 100 | > 100 | 50 | > 100 | > 100 | 23.11 |  |  |  |  |  |  |  | 
7 | CC(=O)N(OCc1ccccc1)C(=O)CCCCCCC(=O)N1CCN(CC(=O)Nc2nc3c(C)cccc3s2)CC1 [Example 41] | 0.1 | 6.2 | > 100 | 10.2 |  | 26 | 100 | > 100 | 4.5 | 53 | > 100 | 0.6 |  |  |  |  |  |  |  | 
8 | CCOc1ccc2nc(NC(=O)CN3CCN(C(=O)CCCCCCC(=O)NO)CC3)sc2c1 [Example 32, 8-{4-[2-(6-Ethoxy-1,3-benzothiazol-2-ylamino)-2-oxoethyl]piperazin-1-yl}-N-hydroxy-8-oxo octanamide] | 1.5 |  | 98 | 15.50 | 98.91 |  |  |  |  |  |  | 60.30 |  | 9.5 | > 100 | 38 | 72 | 95 | 7 | 42
9 | CC(=O)SCCCCCC(=O)N1CCN(CC(=O)Nc2cccc(F)c2)CC1 [Example 22, 2-[4-(6-Thioacetylhexanoyl)piperazin-1-yl]-N-(6-fluorophenyl-2-yl)acetamide] | > 100 | > 100 | > 100 | >100 | 50.0 | > 100 | > 100 | > 100 | 67 | > 100 | > 100 | 6.0 |  |  |  |  |  |  |  | 
10 | CC(=O)SCCCCC(=O)N1CCN(CC(=O)Nc2nccs2)CC1 [Example 7, 2-[4-(5-Thioacetylpentanoyl)piperazin-1-yl]-N-(1,3-thiozole-2-yl)acetamide] | > 100 | > 100 | > 100 | 67.50 | 45.96 | 50 | 88 | > 100 | 85 | > 100 | > 100 | 27.76 |  |  |  |  |  |  |  | 
11 | O=C(CCCCCCC(=O)N1CCN(CC(=O)Nc2nccs2)CC1)NO [Example 34, 8-{4-[2-(1,3-Thiazol-2-ylamino)-2-oxoethyl]piperazin-1-yl}-N-hydroxy-8-oxo octanamide] | 6 | 74 | > 100 | 28 | 89.86 | > 100 | > 100 | > 100 | 50 | > 100 | > 100 | 45.65 |  |  |  |  |  |  |  | 
